Test results as given in patent US11613522B2, “Herbicidally active 3-phenylisoxazoline-5-carboxamides of tetrahydro- and dihydrofurancarboxamides” (BAYER AKTIENGESELLSCHAFT, priority 2017, dated 2023).

Key:
Assay type in all cases: in vivo
[1] = test system: Setaria viridis; assay: Post-emergence herbicidal activity against SETVI; details: dosage 320 g/ha, rated visually after about 3 weeks; for pest or weed control at 320 g/ha: Setaria viridis, 504 h
Experimental: (§1) [table] Seeds of monocotyledonous and dicotyledonous weeds and crop plants are placed in sandy loam in plastic or wood-fiber pots, covered with soil and cultivated in a greenhouse under controlled growth conditions. 2 to 3 weeks after sowing, the test plants are treated at the one-leaf stage. The compounds of the invention, formulated in the form of wettable powders (WP) or as emulsion concentrates (EC), are then sprayed onto the green parts of the plants as aqueous suspension or emulsion with addition of 0.5% additive at a water application rate of 600 l/ha (converted). After the test plants had been kept in the greenhouse under optimum growth conditions for about 3 weeks, the activity of the preparations is rated visually in comparison to untreated controls. For example, 100% activity=the plants have died, 0% activity=like control plants.

[2] = test system: Veronica persica; assay: Post-emergence herbicidal activity against VERPE; details: dosage 320 g/ha, rated visually after about 3 weeks; for pest or weed control at 320 g/ha: Veronica persica, 504 h
Experimental: as §1

[3] = test system: Echinochloa crus-galli; assay: Post-emergence herbicidal activity against ECHCG; details: dosage 320 g/ha, rated visually after about 3 weeks; for pest or weed control at 320 g/ha: Echinochloa crus-galli, 504 h
Experimental: as §1

[4] = test system: Alopecurus myosuroides; assay: Pre-emergence herbicidal activity against ALOMY; details: dosage 80 g/ha, scored visually after about 3 weeks vs untreated controls
From the text: (§2) 1. Pre-emergence herbicidal action against harmful plants and crop plant compatibility Seeds of monocotyledonous and dicotyledonous weed plants and crop plants are placed in plastic or wood fiber pots and covered with soil. The compounds of the invention, formulated in the form of wettable powders (WP) or as emulsion concentrates (EC), are then applied onto the surface of the covering soil as aqueous suspension or emulsion with addition of 0.5% additive at a water application rate of 600 l/ha (converted). After the treatment, the pots are placed in a greenhouse and kept under good growth conditions for the trial plants. After about 3 weeks, the effect of the preparations is scored visually in comparison with untreated controls as percentages. For example, 100% activity=the plants have died, 0% activity=like control plants. [table]

[5] = test system: Stellaria media; assay: Pre-emergence herbicidal activity against STEME; details: dosage 80 g/ha, scored visually after about 3 weeks vs untreated controls; for pest or weed control at 80 g/ha: Stellaria media, 504 h
From the text: as §2

[6] = test system: Amaranthus retroflexus; assay: Pre-emergence herbicidal activity against AMARE; details: dosage 80 g/ha, scored visually after about 3 weeks vs untreated controls
From the text: as §2

[7] = test system: Alopecurus myosuroides; assay: Post-emergence herbicidal activity against ALOMY; details: dosage 320 g/ha, rated visually after about 3 weeks; for pest or weed control at 320 g/ha: Alopecurus myosuroides, 504 h
Experimental: as §1

[8] = test system: Avena fatua; assay: Pre-emergence herbicidal activity against AVEFA; details: dosage 80 g/ha, scored visually after about 3 weeks vs untreated controls; for pest or weed control at 80 g/ha: Avena fatua, 504 h, read-out: Pre-emergence herbicidal activity in % against AVEVA (AVEFA)
From the text: as §2

[9] = test system: Avena fatua; assay: Post-emergence herbicidal activity against AVEFA; details: dosage 320 g/ha, rated visually after about 3 weeks; for pest or weed control at 320 g/ha: Avena fatua, 504 h
Experimental: as §1

[10] = test system: Echinochloa crus-galli; assay: Pre-emergence herbicidal activity against ECHCG; details: dosage 80 g/ha, scored visually after about 3 weeks vs untreated controls
From the text: as §2

[11] = test system: Stellaria media; assay: Post-emergence herbicidal activity against STEME; details: dosage 320 g/ha, rated visually after about 3 weeks; for pest or weed control at 320 g/ha: Stellaria media, 504 h
Experimental: as §1

[12] = test system: Pharbitis purpurea; assay: Post-emergence herbicidal activity against PHBPU; details: dosage 320 g/ha, rated visually after about 3 weeks; for pest or weed control at 320 g/ha: Ipomoea purpurea, 504 h
Experimental: as §1

[13] = test system: Abutilon theophrasti; assay: Post-emergence herbicidal activity against ABUTH; details: dosage 320 g/ha, rated visually after about 3 weeks; for pest or weed control at 320 g/ha: Abutilon theophrasti, 504 h
Experimental: as §1

[14] = test system: Veronica persica; assay: Pre-emergence herbicidal activity against VERPE; details: dosage 80 g/ha
From the text: as §2

[15] = test system: Viola tricolor; assay: Post-emergence herbicidal activity against VIOTR; details: dosage 320 g/ha, rated visually after about 3 weeks; for pest or weed control at 320 g/ha: Viola tricolor, 504 h
Experimental: as §1

[16] = Pre-emergence herbicidal action against harmful plants (summary of the tables); details: 504 h, application rate of 0.08 kg of active substance or less per hectare, read-out: herbicidal action, pre-emergence treatment (very good activity)
From the text: as §2, with “plants.” for “plants. [table]”
As shown by the results, compounds according to the invention such as, for example, the compounds No. I-02 and other compounds from the tables (I-05, I-10, I-11, I-12, I-13, I-14, I-15, I-16, I-17, I-18, I-19, I-20, I-21, I-22, I-23, I-24, I-25, I-26, I-27, I-28, I-29) have, when used for pre-emergence treatment, very good activity (80% to 100% herbicidal action) against harmful plants such as Abutilon theophrasti, Alopecurus myosuroides, Amaranthus retroflexus, Avena fatua, Cyperus esculentus, Echinochloa crus-galli, Hordeum murinum, Lolium rigidum, Pharbitis purpurea, Polygonum convolvulus, Setaria viridis, Stellaria media, Veronica persica and Viola tricolor at an application rate of 0.08 kg of active substance or less per hectare.

[17] = test system: Polygonum convolvulus; assay: Post-emergence herbicidal activity against POLCO; details: dosage 320 g/ha, rated visually after about 3 weeks
Experimental: as §1

[18] = test system: Amaranthus retroflexus; assay: Post-emergence herbicidal activity against AMARE; details: dosage 320 g/ha, rated visually after about 3 weeks
Experimental: as §1

[19] = test system: Polygonum convolvulus; assay: Pre-emergence herbicidal activity against POLCO; details: dosage 80 g/ha, scored visually after about 3 weeks vs untreated controls
From the text: as §2

[20] = test system: Setaria viridis; assay: Pre-emergence herbicidal activity against SETVI; details: dosage 80 g/ha, scored visually after about 3 weeks vs untreated controls
From the text: as §2

[21] = test system: Viola tricolor; assay: Pre-emergence herbicidal activity against VIOTR; details: dosage 80 g/ha, scored visually after about 3 weeks vs untreated controls
From the text: as §2

[22] = test system: Hordeum murinum; assay: Pre-emergence herbicidal activity against HORMU; details: dosage 80 g/ha
From the text: as §2

[23] = test system: Hordeum murinum; assay: Post-emergence herbicidal activity against HORMU; details: dosage 320 g/ha, rated visually after about 3 weeks
Experimental: as §1

[24] = test system: Lolium rigidum; assay: Post-emergence herbicidal activity against LOLRI; details: dosage 320 g/ha, rated visually after about 3 weeks
Experimental: as §1

[25] = test system: Lolium rigidum; assay: Pre-emergence herbicidal activity against LOLRI; details: dosage 80 g/ha, scored visually after about 3 weeks vs untreated controls
From the text: as §2

C=CC1(C(=O)N[C@@H]2CO[C@H](C(=O)NC)C2)CC(c2cc(F)cc(F)c2)=NO1 (relative stereo) [Example I-02, 3-(3,5-difluorophenyl)-N-[cis-5-(methylcarbamoyl)tetrahydrofuran-3-yl]-5-vinyl-4H-isoxazole-5-carboxamide]
80 to 100%: pest or weed control at 80 g/ha [16]
100%: pest or weed control at 80 g/ha [5] | pest or weed control at 80 g/ha ([6]; Amaranthus retroflexus, 504 h) | pest or weed control at 320 g/ha [7] | pest or weed control at 80 g/ha [8] | pest or weed control at 80 g/ha ([10]; Echinochloa crus-galli, 504 h)
90%: pest or weed control at 320 g/ha [1] | pest or weed control at 80 g/ha ([4]; Alopecurus myosuroides, 504 h) | pest or weed control at 320 g/ha [9] | pest or weed control at 320 g/ha [11] | pest or weed control at 320 g/ha [12] | pest or weed control at 80 g/ha ([14]; Veronica persica, 504 h)
80%: pest or weed control at 320 g/ha [2] | pest or weed control at 320 g/ha [3] | pest or weed control at 320 g/ha [13] | pest or weed control at 320 g/ha [15]

CNC(=O)[C@@H]1C[C@H](NC(=O)C2(C)CC(c3cc(F)cc(F)c3)=NO2)CO1 (relative stereo) [Example I-05, 3-(3,5-difluorophenyl)-5-methyl-N-[cis-5-(methylcarbamoyl)tetrahydrofuran-3-yl]-4H-isoxazole-5-carboxamide]
80 to 100%: pest or weed control at 80 g/ha [16]
100%: pest or weed control at 80 g/ha ([21]; Viola tricolor, 504 h) | pest or weed control at 80 g/ha [8]
90%: pest or weed control at 320 g/ha [3] | pest or weed control at 80 g/ha ([19]; Fallopia convolvulus, 504 h) | pest or weed control at 80 g/ha ([20]; Setaria viridis, 504 h) | pest or weed control at 320 g/ha [7]
80%: pest or weed control at 320 g/ha [1] | pest or weed control at 320 g/ha [2] | pest or weed control at 320 g/ha ([17]; Fallopia convolvulus, 504 h) | pest or weed control at 320 g/ha ([18]; Amaranthus retroflexus, 504 h) | pest or weed control at 80 g/ha [5] | pest or weed control at 320 g/ha [9] | pest or weed control at 320 g/ha [11] | pest or weed control at 320 g/ha [12] | pest or weed control at 320 g/ha [13] | pest or weed control at 320 g/ha [15]

C=CC1(C(=O)NC2COC(C(=O)NC(C)CC(=O)OCC)C2)CC(c2cc(F)cc(F)c2)=NO1 (centres unmarked) [Example I-22]
100%: Pre-emergence herbicidal activity in % against HORMU [22] | Post-emergence herbicidal activity in % against HORMU [23] | Post-emergence herbicidal activity in % against ECHCG [3] | Pre-emergence herbicidal activity in % against ALOMY [4] | Pre-emergence herbicidal activity in % against POLCO [19] | Pre-emergence herbicidal activity in % against AMARE [6] | Pre-emergence herbicidal activity in % against SETVI [20] | Post-emergence herbicidal activity in % against ALOMY [7] | Pre-emergence herbicidal activity in % against VIOTR [21] | Pre-emergence herbicidal activity in % against AVEVA (AVEFA) [8] | Post-emergence herbicidal activity in % against AVEFA [9] | Post-emergence herbicidal activity in % against LOLRI [24] | Pre-emergence herbicidal activity in % against LOLRI [25] | Pre-emergence herbicidal activity in % against VERPE [14]
80%: Post-emergence herbicidal activity in % against VERPE [2] | Post-emergence herbicidal activity in % against POLCO [17] | Post-emergence herbicidal activity in % against STEME [11] | Post-emergence herbicidal activity in % against ABUTH [13] | Post-emergence herbicidal activity in % against VIOTR [15]
90%: Post-emergence herbicidal activity in % against SETVI [1] | Post-emergence herbicidal activity in % against AMARE [18] | Pre-emergence herbicidal activity in % against STEME [5] | Post-emergence herbicidal activity in % against PHBPU [12]

CN(C)NC(=O)[C@@H]1C[C@H](NC(=O)[C@@]2(C)CC(c3cc(F)cc(F)c3)=NO2)CO1 [Example I-26]
90%: Pre-emergence herbicidal activity in % against HORMU [22] | Pre-emergence herbicidal activity in % against POLCO [19] | Pre-emergence herbicidal activity in % against SETVI [20] | Pre-emergence herbicidal activity in % against AVEVA (AVEFA) [8] | Pre-emergence herbicidal activity in % against ECHCG [10] | Post-emergence herbicidal activity in % against PHBPU [12] | Post-emergence herbicidal activity in % against VIOTR [15]
100%: Post-emergence herbicidal activity in % against HORMU [23] | Post-emergence herbicidal activity in % against ECHCG [3] | Pre-emergence herbicidal activity in % against ALOMY [4] | Pre-emergence herbicidal activity in % against STEME [5] | Pre-emergence herbicidal activity in % against AMARE [6] | Post-emergence herbicidal activity in % against ALOMY [7] | Post-emergence herbicidal activity in % against AVEFA [9] | Post-emergence herbicidal activity in % against LOLRI [24] | Pre-emergence herbicidal activity in % against LOLRI [25] | Post-emergence herbicidal activity in % against STEME [11]
80%: Post-emergence herbicidal activity in % against SETVI [1] | Post-emergence herbicidal activity in % against VERPE [2] | Post-emergence herbicidal activity in % against POLCO [17] | Post-emergence herbicidal activity in % against AMARE [18] | Pre-emergence herbicidal activity in % against VIOTR [21] | Post-emergence herbicidal activity in % against ABUTH [13] | Pre-emergence herbicidal activity in % against VERPE [14]
